Blank lines part the entries; values can stand above or below the compound they belong to.
How the values were obtained:
[1] = Cyclic voltammetry of Tb, HEDP and ZOL; settings: glassy carbon electrode, Ag/AgCl reference, carbonate buffer pH 9
[2] = Biodistribution in healthy Wistar rats; assay type: in vivo; settings: i.v.
Procedure: All animal experiments were conducted using healthy Wistar rats weighing 100–120 g. The rats were obtained from the Military Medical Academy (Belgrade, Serbia). All procedures involving animals were approved by the Ethical Committee of the Vinča Institute of Nuclear Sciences (permission No. 002225501 2025, issued on 20 May 2025) and were performed by the Directive 2010/63/EU of the European Parliament and of the Council of 22 September 2010 [50] on the protection of animals used for scientific purposes, as well as national animal welfare laws.
A total of 0.74 MBq of each ^161Tb-labeled compound (^161Tb-HEDP and ^161Tb-ZOL) and free ^161TbCl3 (at pH 7.5 and pH 4.5) was prepared in a final injection volume of 0.1 mL. Physiological saline was added to adjust the concentration to 10 µg of radiolabeled complex per 0.1 mL. Each formulation was administered intravenously via the lateral tail vein.
Animals (n = 3 per time point) were sacrificed at predetermined intervals: 2 h, 24 h, and 7 d post-injection, depending on the study group. Euthanasia was performed by intraperitoneal injection of a ketamine/xylazine overdose. Immediately after sacrifice, major organs and tissues (heart, lungs, liver, spleen, kidneys, stomach, intestines, muscle, and femur) were collected, weighed, and assessed for radioactivity using a gamma counter. The biodistribution of radiolabeled compounds was expressed as the percentage of the injected dose per gram of tissue (%ID/g), calculated by comparing the sample activity to that of the standard representing 100% of the injected dose. All data are presented as mean ± standard deviation (SD).

[3] = Radioelectrophoresis (net charge of complexes); assay type: physicochemical; settings: 0.05 M phosphate buffer pH 7.4, 250 V, 1 h
Procedure: Radioelectrophoresis was employed to determine the net charge of the ^161Tb-labeled diphosphonate complexes and to confirm successful radiolabeling. For each sample, 5 μL of the radiolabeled complex or a control solution of ^161TbCl3 was applied to the center of Whatman 3MM chromatography paper strips (2 × 25 cm), which had been pre-soaked in 0.05 M phosphate buffer (pH 7.4). The strips were placed in an electrophoresis chamber filled with the same phosphate buffer, and electrophoresis was carried out at 250 V for 1 h using a Gelman Instrument electrophoresis system (Gelman Instrument Co., Ann Arbor, MI, USA). After radioelectrophoresis, each strip was dried and scanned using a TLC scanner. This method allowed the determination of the migration pattern of the radiolabeled species compared to free ^161Tb^3+, providing information about the charge and integrity of the formed complexes.

[4] = 2 h post-injection (initial), injected at pH 4.5
[5] = 2 h post-injection, injected at pH 4.5
[6] = 2 h post-injection, injected at pH 7.5
[7] = 7 d post-injection, injected at pH 7.5

Second Oxidation Pot. [1]: 1.45 V
Second Reduction Pot. [1]: −0.54 V
Structure (SMILES): CC(O)(P(=O)(O)O)P(=O)(O)O [HEDP, 1-Hydroxyethylidene-1,1-diphosphonic acid]

Second Oxidation Pot. [1]: 1.39 V
Second Reduction Pot. [1]: −0.56 V
Structure (SMILES): O.O.O.O.O.O.[Cl-].[Cl-].[Cl-].[Tb+3] [Tb, terbium(III) chloride hexahydrate]

First Oxidation Pot. [1]: 0.93 V
First Reduction Pot. [1]: 0.41 V
Second Oxidation Pot. [1]: 1.27 V
Second Reduction Pot. [1]: −0.54 V
Structure (SMILES): O=P(O)(O)C(O)(Cn1ccnc1)P(=O)(O)O [ZOL, 1-hydroxy-2-(1H-imidazol-1-yl)ethane-1,1-diyldiphosphonic acid]

Liver [2, 4]: 1.88 ± 0.31 %ID/g
Spleen uptake [2, 4]: 0.37 ± 0.12 %ID/g
Blood [2, 5]: 0.02 ± 0.01 %ID/g
Bone uptake [2, 5]: 7.31 ± 0.32 %ID/g
Bone-to-kidney ratio [2, 5]: 3.97
Bone-to-liver ratio [2, 5]: 3.89
Muscle [2, 5]: 0.08 ± 0.05 %ID/g
Other tissues [2, 5]: Minimal uptake
Kidney ([2]; 2 h post-injection, injected at pH 4.5, listed as 161TbCl3 (pH 4.5)): 1.84 ± 0.07 %ID/g
Bone uptake [2, 6]: 6.53 ± 0.22 %ID/g
Kidney uptake [2, 6]: 1.03 ± 0.06 %ID/g
Liver uptake [2, 6]: 6.99 ± 0.21 %ID/g
Spleen uptake [2, 6]: 4.88 ± 0.15 %ID/g
Bone uptake ([2]; 24 h post-injection, injected at pH 7.5): 6.61 ± 0.14 %ID/g
Bone uptake ([2]; 7 d post-injection, injected at pH 4.5): 7.18 ± 0.12 %ID/g
Bone uptake [2, 7]: 6.68 ± 0.29 %ID/g
Kidney uptake [2, 7]: 0.60 ± 0.02 %ID/g
Liver uptake [2, 7]: 2.33 ± 0.02 %ID/g
Spleen uptake [2, 7]: 0.79 ± 0.02 %ID/g
Migration / net charge in radioelectrophoresis [3]: remained at the point of application
Structure (SMILES): [161Tb+3].[Cl-].[Cl-].[Cl-] [^161TbCl3]

From publication PMC12609950, “Evaluation of ^161Tb-Labeled Diphosphonates as Potential Bone-Targeting Agents” (International Journal of Molecular Sciences, 2025)
